The source made the active and inactive calls. No cut-off for these calls is given here.
Experiments:
Geotrichum candidum = assay: Antifungal activity against Geotrichum candidum up to 120 ug/ml; format: functional, organism-based
Artemia salina [1] = assay: Toxicity in Artemia salina at 5 ug/ml; format: organism-based; details: in vivo
Artemia salina [2] = assay: Toxicity in Artemia salina at 50 ug/ml; format: organism-based; details: in vivo
Pisum sativum = assay: Phytotoxicity against pea leaves assessed as necrotic lesion at 15 ug/15 ul after 48 hrs by leaf puncture assay; format: functional, organism-based; details: Lathyrus oleraceus
Fabaceae = assay: Phytotoxicity against beans leaves assessed as necrotic lesion at 15 ug/15 ul after 48 hrs by leaf puncture assay; format: functional, organism-based

SMILES | Activity (Geotrichum candidum) | Activity (Artemia salina [1]) | Activity (Artemia salina [2]) | Activity (Pisum sativum) | Activity (Fabaceae)
C/C=C/C=C/C(=O)O[C@H]1CC/C=C/[C@H](O)[C@H](O)[C@@H](CCC)OC1=O [PINOLIDOXIN] | inactive | Non-toxic | – | – | –
C/C=C/C=C/C(=O)O[C@H]1CCC2OC2[C@H](O)[C@H](O)[C@@H](CCC)OC1=O (some centres undefined) | inactive | Non-toxic | Toxic | – | –
C/C=C/C=C/C(=O)O[C@H]1CC/C=C/[C@@H](O)[C@H](O)[C@@H](CCC)OC1=O | inactive | Non-toxic | Toxic | Toxic | Toxic
C/C=C/C=C/C(=O)O[C@H]1CCCC[C@H](O)[C@H](O)[C@@H](CCC)OC1=O | inactive | Non-toxic | – | Toxic | Toxic

— ChEMBL document CHEMBL1147395, “Three New Toxic Pinolidoxins from Ascochyta pinodes” (J Nat Prod, 1993)
